Results reported in patent US6326526A, “Melatonin receptor-deficient mice and uses thereof” (Bristol-Myers Squibb Company, priority 2000, dated 2001).

Tests used:
[1] = system: SCN slices from wild-type mice (multiunit activity); assay: SCN multiunit recordings, melatonin-induced inhibition of neuronal firing, wild-type mice; format: cell-based, mouse
Protocol: (§1) Adult male wild-type and homozygous mutant mice were housed in LD 12:12 for a minimum of three weeks prior to experimentation. After the adaptation period, the mice were killed 2.0 to 4.5 hours after lights-on, and brains were rapidly dissected and placed into ACSF medium containing 116.3 mM NaCl, 5,4 mM KCl, 1.0 mM NaH2 PO4, 26.2 mM NaHCO3, 1.8 mM CaCl2, 0.8 mM MgSO4, 24.6 mM dextrose, and 5 mg/l Gentamicin sulphate, pH 7.5. A block of tissue containing the hypothalamus was dissected from the brain and transferred to a manual tissue chopper where coronal hypothalamic brain slices (400 μm in thickness) containing the SCN were prepared. Slices were placed in a Haas-type brain slice chamber (Haas H. L., et al., J. Neurosci. Methods 1:323-325, 1979; Medical Systems Corp.) and gauze strips placed over the slices in the vicinity of the SCN to raise the fluid level above the slices. They were continually superfused with ACSF medium warmed to 37° C. To record multiple-unit SCN electrical activity, a 76 μm-diameter, teflon-coated platinum-iridium wire electrode was lowered into the brain slice in the SCN (Bouskila, Y., and Dudek, F. E., Proc. Natl. Acad. Sci. USA 90:3207-3210, 1993). This electrical activity was amplified, and the number of electrical events was counted with a window discriminator (Fintronics Inc., Orange, Conn.). Data were collected and analyzed by computer, using Brainwave™ (Data Waver Technologies, Broomfield, Colo.) or Spike 2™ (Cambridge Electronic Design, Cambridge, Mass.) software. The average number of electrical events in successive 1-minute intervals was determined and plotted against the circadian time of recording. Slices were excluded if their viability was compromised on day 2 of recording.
Melatonin was prepared as a 100 μM stock solution in 100% ethanol, which was serially diluted with ACSF medium to yield four melatonin concentrations between 0.1 and 100 nM. A stock solution of vehicle (100% ethanol) was serially diluted with ACSF medium to yield the corresponding vehicle for each melatonin concentration. Melatonin or vehicle was applied by gravity flow in the bath for 30 minutes at each concentration before switching to the next solution. […] In the mouse experiments at circadian time 4.5-6.5 where only the single highest vehicle concentration was used as a comparator, the vehicle was applied for 30 minutes prior to the application of melatonin. A programmable automatic solution switching system (AutoMate Scientific Inc., Oakland, Calif.) was employed to time solution applications.
(§2) The maximum percent inhibition of SCN neuronal firing during each 30 minutes application of melatonin or vehicle was calculated with respect to the average multiunit firing rate during the 5 minute period prior to the first application of a series, and plotted.

[2] = system: SCN slices from Mel1a receptor-deficient (homozygous mutant) mice (multiunit activity); conditions: 0.1 to 100 nM, CT 9.5-11.5 and CT 4.5-6.5, relative to vehicle
Protocol: as §1, with “Slices were placed in a Haas-type brain slice chamber (Haas H. L., et al., J. Neurosci. Methods 1:323-325, 1979; Medical Systems Corp.) and gauze strips placed over the slices in the vicinity of the SCN to raise the fluid level above the slices. They were continually superfused with ACSF medium warmed to 37° C. To record multiple-unit SCN electrical activity, a 76 μm-diameter, teflon-coated platinum-iridium wire electrode was lowered into the brain slice in the SCN (Bouskila, Y., and Dudek, F. E., Proc. Natl. Acad. Sci. USA 90:3207-3210, 1993).” left out, “Slices were excluded if their viability was compromised on day 2 of recording.” left out
as §2

[3] = system: SCN slices from wild-type mice (single-unit electrical activity rhythm); assay: SCN single unit recordings, phase shift of electrical activity rhythm, wild-type mice; format: cell-based, mouse
Protocol: (§3) Mice were housed in LD 12:12 for three weeks prior to experimentation. After adaptation, mice were killed by decapitation during the light phase of the LD cycle. Hypothalamic slices (500 μm) were prepared using a tissue chopper and incubated at 37° C., as previously described (Liu, C., and Gillette, M. U., J. Neurosci. 16:744-751, 1996). For most experiments, perfusion was discontinued during the 1-hour treatment with melatonin or vehicle (0.0001% ethanol in perfusion medium). For the pertussis toxin experiment, perfusion was discontinued for 6 hours, ending after the vehicle or melatonin treatment. At the end of treatment, the medium in the chamber was replaced, and perfusion was resumed with melatonin-free medium. Single units from the SCN were recorded the following day with glass microelectrodes (Liu, C., and Gillette, M. U., J. Neurosci. 16:744-751, 1996). Signals were amplified, filtered to a band width of 0.3-3 kHz, and stored (MacADIO II, GW Instruments, Somerville, Mass.). Voltage pulses exceeding preset recording threshold were detected on-line by custom software. Off-line analysis assigned a cluster of spikes of similar amplitude and width to each unit recorded (Meister, M., et al., J. Neurosci. Methods 51:95-101, 1994). Firing rate data were analyzed as previously described to determine the time-of-peak in the activity rhythm (Liu, C., and Gillette, M. U., J. Neurosci. 16:744-751, 1996).

[4] = system: SCN slices from Mel1a receptor-deficient (homozygous mutant) mice (single-unit electrical activity rhythm); assay: SCN single unit recordings, phase shift of electrical activity rhythm, Mel1a receptor-deficient mice; format: cell-based, mouse
Protocol: as §3

[5] = system: rat SCN single-unit activity rhythm; conditions: rats; read-out: EC50 of phase-shifting effect on the single-unit activity rhythm; cited from earlier work

## COc1ccc2[nH]cc(CCNC(C)=O)c2c1 [melatonin]
[1]; Mus musculus, 1 nM, at night CT 18, wild-type C57BL/6 mice, n=8
  inhibition at 0.001 µM: 33.9 ± 3.9%
[1]; Mus musculus, 0.1-100 nM, 30 min each, CT 4.5-6.5, day 2 in culture
  EC50: 0.412 nM
[1]; increasing melatonin 0.1-100 nM, CT 4.5-6.5 of day 2 (FIG. 4A)
  Percent inhibition of SCN firing rate: over 30%
[1]; melatonin 0.1-100 nM, CT 9.5-11.5 of day 1, plateau (FIG. 4B)
  Percent inhibition of SCN firing rate: about 13%
[2]
  Inhibition of SCN multiunit activity: unable to significantly inhibit SCN multiunit activity
[3]; application at CT 9.5-10.5, preliminary studies of wildtype mice
  Phase advance in circadian phase: approximately 4 hour
[3]; application from CT 5.5-6.5
  Phase shift in the electrical activity rhythm: did not elicit significant phase shifts
[3]; application from CT 5.5-6.5, n=3
  CT of activity peak: 6.8 ± 0.3 h
[4]
  Circadian time of the activity peak: 6.6 ± 0.1 h
  Phase of the firing rhythm peak: not shifted
[4]; 1 nM, CT 9.5-10.5
  Phase shift (phase advance) in the electrical activity rhythm peak: approximately 4 hour
[4]; 1 nM, CT 9.5-10.5, after 5-hour static bath of normal medium, n=3
  Phase advance in circadian phase: 3.2 ± 0.1 h
[5]
  EC50: < 0.1 nM
